# Data from US8802597B2, “Herbicidal pyrimidines” (E I du Pont de Nemours and Company, priority 2003, dated 2014).
# Read-outs that look alike come from different tables or passages of the source.
# What was measured:
# Assay type in all cases: in vivo
# [1] = system: Surinam grass (Brachiaria decumbens); assay: Test B pre/postemergence; conditions: Urochloa decumbens; for pest or weed control at 125 g/ha: 125 g ai/ha; for pest or weed control at 500 g/ha: 500 g ai/ha
# How it was run: (§1)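 Plants treated pre- or postemergence were compared visually with controls after 13 to 15 days. Ratings ran from 0, no effect, to 100, complete control.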
# [2] = system: barnyardgrass (Echinochloa crus-galli); assay: Test B pre/postemergence; conditions: Echinochloa crus-galli; for pest or weed control at 125 g/ha: 125 g ai/ha; for pest or weed control at 500 g/ha: 500 g ai/ha
# How it was run: as §1
# [3] = system: cocklebur (Xanthium strumarium); assay: Test B pre/postemergence; conditions: Xanthium strumarium; for pest or weed control at 125 g/ha: 125 g ai/ha; for pest or weed control at 500 g/ha: 500 g ai/ha
# How it was run: as §1
# corn (Zea mays) = assay: Test B pre/postemergence; conditions: Zea mays
# How it was run: as §1
# [4] = system: crabgrass (Digitaria sanguinalis); assay: Test B pre/postemergence; conditions: Digitaria sanguinalis; for pest or weed control at 125 g/ha: 125 g ai/ha; for pest or weed control at 500 g/ha: 500 g ai/ha
# How it was run: as §1
# [5] = system: giant foxtail (Setaria faberii); assay: Test B pre/postemergence; conditions: Setaria faberi; for pest or weed control at 125 g/ha: 125 g ai/ha; for pest or weed control at 500 g/ha: 500 g ai/ha
# How it was run: as §1
# [6] = system: lambsquarters (Chenopodium album); assay: Test B pre/postemergence; conditions: Chenopodium album; for pest or weed control at 125 g/ha: 125 g ai/ha; for pest or weed control at 500 g/ha: 500 g ai/ha
# How it was run: as §1
# [7] = system: morningglory (Ipomoea coccinea); assay: Test B pre/postemergence; conditions: Ipomoea; for pest or weed control at 125 g/ha: 125 g ai/ha; for pest or weed control at 500 g/ha: 500 g ai/ha
# How it was run: as §1
# [8] = system: pigweed (Amaranthus retroflexus); assay: Test B pre/postemergence; conditions: Amaranthus retroflexus; for pest or weed control at 125 g/ha: 125 g ai/ha; for pest or weed control at 500 g/ha: 500 g ai/ha
# How it was run: as §1
# [9] = system: velvetleaf (Abutilon theophrasti); assay: Test B pre/postemergence; conditions: Abutilon theophrasti; for pest or weed control at 125 g/ha: 125 g ai/ha; for pest or weed control at 500 g/ha: 500 g ai/ha
# How it was run: as §1
# [10] = system: wheat (Triticum aestivum); assay: Test B pre/postemergence; conditions: Triticum aestivum; for plant injury at 125 g/ha: 125 g ai/ha; for plant injury at 500 g/ha: 500 g ai/ha
# How it was run: as §1
# [11] = system: blackgrass (Alopecurus myosuroides); assay: Test B postemergence; conditions: Alopecurus myosuroides, post-emergence
# How it was run: as §1
# wild oat (Avena fatua) = assay: Test B postemergence; conditions: Avena fatua, post-emergence
# How it was run: as §1
# [12] = system: barnyardgrass (Echinochloa crus-galli); assay: Test B flooded paddy test; conditions: Echinochloa crus-galli, Flood, 1000 g ai/ha; scale 0 (no effect) to 100 (complete control); read-out: Plant response rating, Barnyardgrass
# How it was run: (§2)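 Plants were grown to the 2-leaf stage before treatment, then kept in a greenhouse for 13 to 15 days. Injury was rated visually against untreated controls on a 0 to 100 scale, where 0 is no effect and 100 is complete control.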
# [13] = system: duck salad (Heteranthera limosa); assay: Test B flooded paddy test; conditions: Heteranthera limosa, Flood, 1000 g ai/ha; scale 0 to 100; read-out: Plant response rating, Ducksalad
# How it was run: as §2
# rice (Oryza sativa) = assay: Test B flooded paddy test; conditions: Oryza sativa, Flood, 1000 g ai/ha; scale 0 to 100; read-out: Plant response rating, Rice
# How it was run: as §2
# [14] = system: umbrella sedge (Cyperus difformis); assay: Test B flooded paddy test; conditions: Cyperus difformis, Flood, 1000 g ai/ha; scale 0 to 100; read-out: Plant response rating, Sedge, Umbrella
# How it was run: as §2
compound,measurement,setting,value
CCOC(=O)c1nc(C2CC2)nc(N)c1F [Compound 30],pest or weed control at 125 g/ha,"[1]; post-emergence, Postemergence, scale 0 to 100 (0 no effect, 100 complete control), read-out: Surinam Grass plant response rating",10%
same,pest or weed control at 500 g/ha,"[1]; post-emergence, Postemergence, scale 0 to 100, read-out: Plant response rating, Surinam Grass",80%
same,pest or weed control at 125 g/ha,"[1]; pre-emergence, Preemergence, scale 0 to 100 (0 no effect, 100 complete control), read-out: Plant response rating, Surinam Grass",0%
same,pest or weed control at 500 g/ha,"[1]; pre-emergence, Preemergence, scale 0 to 100 (0 no effect, 100 complete control), read-out: Surinam Grass plant response rating",80%
same,pest or weed control at 125 g/ha,"[2]; post-emergence, Postemergence, scale 0 to 100 (0 no effect, 100 complete control), read-out: Barnyardgrass plant response rating",0%
same,pest or weed control at 500 g/ha,"[2]; post-emergence, Postemergence, scale 0 to 100, read-out: Plant response rating, Barnyardgrass",80%
same,pest or weed control at 125 g/ha,"[2]; pre-emergence, Preemergence, scale 0 to 100 (0 no effect, 100 complete control), read-out: Plant response rating, Barnyardgrass",10%
same,pest or weed control at 500 g/ha,"[2]; pre-emergence, Preemergence, scale 0 to 100 (0 no effect, 100 complete control), read-out: Barnyardgrass plant response rating",40%
same,pest or weed control at 125 g/ha,"[3]; post-emergence, Postemergence, scale 0 to 100 (0 no effect, 100 complete control), read-out: Cocklebur plant response rating",100%
same,pest or weed control at 500 g/ha,"[3]; post-emergence, Postemergence, scale 0 to 100, read-out: Plant response rating, Cocklebur",100%
same,pest or weed control at 125 g/ha,"[3]; pre-emergence, Preemergence, scale 0 to 100 (0 no effect, 100 complete control), read-out: Plant response rating, Cocklebur",60%
same,pest or weed control at 500 g/ha,"[3]; pre-emergence, Preemergence, scale 0 to 100 (0 no effect, 100 complete control), read-out: Cocklebur plant response rating",100%
same,plant injury at 125 g/ha,"corn (Zea mays); post-emergence, Postemergence, 125 g ai/ha, scale 0 to 100 (0 no effect, 100 complete control), read-out: Corn plant response rating",0%
same,"Corn plant response rating (crop injury, 0 = no effect, 100 = complete kill) at 500 g/ha","corn (Zea mays); post-emergence, Postemergence, 500 g ai/ha, scale 0 to 100",30%
same,"Corn plant response rating (crop injury, 0 = no effect, 100 = complete kill) at 125 g/ha","corn (Zea mays); pre-emergence, Preemergence, 125 g ai/ha, scale 0 to 100 (0 no effect, 100 complete control)",10%
same,plant injury at 500 g/ha,"corn (Zea mays); pre-emergence, Preemergence, 500 g ai/ha, scale 0 to 100 (0 no effect, 100 complete control), read-out: Corn plant response rating",80%
same,pest or weed control at 125 g/ha,"[4]; post-emergence, Postemergence, scale 0 to 100 (0 no effect, 100 complete control), read-out: Crabgrass plant response rating",30%
same,pest or weed control at 500 g/ha,"[4]; post-emergence, Postemergence, scale 0 to 100, read-out: Plant response rating, Crabgrass",90%
same,pest or weed control at 125 g/ha,"[4]; pre-emergence, Preemergence, scale 0 to 100 (0 no effect, 100 complete control), read-out: Plant response rating, Crabgrass",50%
same,pest or weed control at 500 g/ha,"[4]; pre-emergence, Preemergence, scale 0 to 100 (0 no effect, 100 complete control), read-out: Crabgrass plant response rating",90%
same,pest or weed control at 125 g/ha,"[5]; post-emergence, Postemergence, scale 0 to 100 (0 no effect, 100 complete control), read-out: Foxtail, Giant plant response rating",0%
same,pest or weed control at 500 g/ha,"[5]; post-emergence, Postemergence, scale 0 to 100, read-out: Plant response rating, Foxtail, Giant",90%
same,pest or weed control at 125 g/ha,"[5]; pre-emergence, Preemergence, scale 0 to 100 (0 no effect, 100 complete control), read-out: Plant response rating, Foxtail, Giant",10%
same,pest or weed control at 500 g/ha,"[5]; pre-emergence, Preemergence, scale 0 to 100 (0 no effect, 100 complete control), read-out: Foxtail, Giant plant response rating",80%
same,pest or weed control at 125 g/ha,"[6]; post-emergence, Postemergence, scale 0 to 100 (0 no effect, 100 complete control), read-out: Lambsquarters plant response rating",90%
same,pest or weed control at 500 g/ha,"[6]; post-emergence, Postemergence, scale 0 to 100, read-out: Plant response rating, Lambsquarters",100%
same,pest or weed control at 125 g/ha,"[6]; pre-emergence, Preemergence, scale 0 to 100 (0 no effect, 100 complete control), read-out: Plant response rating, Lambsquarters",80%
same,pest or weed control at 500 g/ha,"[6]; pre-emergence, Preemergence, scale 0 to 100 (0 no effect, 100 complete control), read-out: Lambsquarters plant response rating",90%
same,pest or weed control at 125 g/ha,"[7]; post-emergence, Postemergence, scale 0 to 100 (0 no effect, 100 complete control), read-out: Morningglory plant response rating",90%
same,pest or weed control at 500 g/ha,"[7]; post-emergence, Postemergence, scale 0 to 100, read-out: Plant response rating, Morningglory",100%
same,pest or weed control at 125 g/ha,"[7]; pre-emergence, Preemergence, scale 0 to 100 (0 no effect, 100 complete control), read-out: Plant response rating, Morningglory",90%
same,pest or weed control at 500 g/ha,"[7]; pre-emergence, Preemergence, scale 0 to 100 (0 no effect, 100 complete control), read-out: Morningglory plant response rating",100%
same,pest or weed control at 125 g/ha,"[8]; post-emergence, Postemergence, scale 0 to 100 (0 no effect, 100 complete control), read-out: Pigweed plant response rating",90%
same,pest or weed control at 500 g/ha,"[8]; post-emergence, Postemergence, scale 0 to 100, read-out: Plant response rating, Pigweed",100%
same,pest or weed control at 125 g/ha,"[8]; pre-emergence, Preemergence, scale 0 to 100 (0 no effect, 100 complete control), read-out: Plant response rating, Pigweed",50%
same,pest or weed control at 500 g/ha,"[8]; pre-emergence, Preemergence, scale 0 to 100 (0 no effect, 100 complete control), read-out: Pigweed plant response rating",90%
same,pest or weed control at 125 g/ha,"[9]; post-emergence, Postemergence, scale 0 to 100 (0 no effect, 100 complete control), read-out: Velvetleaf plant response rating",50%
same,pest or weed control at 500 g/ha,"[9]; post-emergence, Postemergence, scale 0 to 100, read-out: Plant response rating, Velvetleaf",90%
same,pest or weed control at 125 g/ha,"[9]; pre-emergence, Preemergence, scale 0 to 100 (0 no effect, 100 complete control), read-out: Plant response rating, Velvetleaf",10%
same,pest or weed control at 500 g/ha,"[9]; pre-emergence, Preemergence, scale 0 to 100 (0 no effect, 100 complete control), read-out: Velvetleaf plant response rating",80%
same,plant injury at 125 g/ha,"[10]; post-emergence, Postemergence, scale 0 to 100 (0 no effect, 100 complete control), read-out: Wheat plant response rating",50%
same,plant injury at 500 g/ha,"[10]; post-emergence, Postemergence, scale 0 to 100, read-out: Plant response rating, Wheat",60%
same,plant injury at 125 g/ha,"[10]; pre-emergence, Preemergence, scale 0 to 100 (0 no effect, 100 complete control), read-out: Plant response rating, Wheat",30%
same,plant injury at 500 g/ha,"[10]; pre-emergence, Preemergence, scale 0 to 100 (0 no effect, 100 complete control), read-out: Wheat plant response rating",60%
same,pest or weed control at 125 g/ha,"[11]; 125 g ai/ha, scale 0 to 100 (0 no effect, 100 complete control), read-out: Blackgrass plant response rating",60%
same,pest or weed control at 500 g/ha,"[11]; 500 g ai/ha, scale 0 to 100, read-out: Plant response rating, Blackgrass",70%
same,pest or weed control at 125 g/ha,"wild oat (Avena fatua); 125 g ai/ha, scale 0 to 100 (0 no effect, 100 complete control), read-out: Oat, Wild plant response rating",60%
same,pest or weed control at 500 g/ha,"wild oat (Avena fatua); 500 g ai/ha, scale 0 to 100, read-out: Plant response rating, Oat, Wild",70%
same,pest or weed control at 1000 g/ha,[12],0%
same,pest or weed control at 1000 g/ha,[13],0%
same,plant injury at 1000 g/ha,rice (Oryza sativa),0%
same,pest or weed control at 1000 g/ha,[14],0%
